Data on 1 molecule can be found in patent publication US20190142737A1, “SUBLINGUAL SPRAY FORMULATION COMPRISING DIHYDROARTEMESININ” (LondonPharma Ltd., priority 2009, published 2019).

Where two headings read alike, the source gives them in different places.

A short description of series [1]: Impurities of artemether in solvent systems after eight weeks storage (HPLC). The conditions noted are these: in contact with water, ethanol, or propellants for aerosol formulations. Type of series: physicochemical. The source says: Tables 1 and 2 show impurities present in Artemether API, and artemether in three solvent systems: 20% ethanol+80% propellant; 50% ethanol+50% propellant; 100% ethanol; and a medium chain triglyceride, in this case, the triglyceride sold under the registered trade mark Miglyol® 810. Miglyol® is a medium chain triglyceride containing saturated C8 and C10 fatty acids, typically between 65-80% of caprylic acid (C8:0) and 20-35% of capric acid (C10:0). The propellant used in these test was 1,1,1,2 tetrafluoroethane, sold under the registered trade mark Zephex® 134a. Similar results were obtained for the propellants butane, Zephex® 227 (1,1,1,2,3,3,3 heptafluoropropane) and for a mixture of butane and propane. […] In all other cases, the impurities are at levels that exceed those permitted under the ICH Harmonised Tripartite Guidelines for Impurities in New Drug Products without specific identification or further toxicological examination.

For series [2] the following is noted: animals, cited from earlier work.
For series [3] the following is noted: humans, cited from earlier work.

As for `CO[C@H]1O[C@@H]2O[C@@]3(C)CC[C@H]4[C@H](C)CC[C@@H]([C@H]1C)[C@@]24OO3` [artemether], the “Stability of artemether (in words)” value in series [1] is recorded as “not stable”. The Bioavailability was 54% in series [2] (intramuscular injection), 19-35% in series [2] (oral administration), 25% in series [3] (intramuscular route) and 35% in series [3] (intrarectal route).
